Test results: paper PMC9095466 (Nature, 2022)
pEC50: −log10 of the molar value. “And” between values parts separate entries of the source, which are not always exact repeats. Identical values can stand only once. Like-named read-outs stand apart in the source and are kept apart here.

Columns and labels:
[1] = Cytotoxicity assay (Cell Titer-Glo 2.0) in Vero E6 cells; format: cell-based; conditions: African green monkey
Procedure: Calu-3 and Vero E6 cells (2500 or 10,000 cells for samples, 80–20,000 cells for standard curve) were seeded in 96-well plates. Following a 24-h incubation at 37 °C, 5% CO2, cells were washed with D-PBS and compounds added (10 µM) for an additional 24-h incubation. Cellular viability was assessed using Cell Titer-Glo 2.0 Cell Viability Assay (Promega) according to the manufacturer’s instructions. The number of viable cells was extrapolated using the standard curve. Cellular viability in Vero E6 cells was expressed relative (%) to vehicle-treated cells. Data are from four independent experiments (mean ± s.d.).

[2] = tested on: SARS-CoV-2 B.1.617.2 (Delta); format: in vivo, K18-hACE2 mice; conditions: for PFU/g / PFU/mL: lung, plaque assay, N-0385 12h PI, individual mice
[3] = tested on: SARS-CoV-2 B.1.617.2 (Delta); assay: K18-hACE2 mice infected with Delta VOC, IHC of nucleocapsid in lung; format: in vivo
Procedure: (§1) To detect viral antigen, sections were labelled with anti-SARS-CoV-2 nucleocapsid protein rabbit IgG monoclonal antibody (GeneTex; GTX635679) at a 1:5,000 dilution and processed using a Leica Bond Max automated IHC stainer. Leica Bond Polymer Refine Detection (Leica; DS9800) with DAB was used as the chromogen. Image acquisition was performed using a Roche Ventana DP200 slide scanner. Digital image analysis was performed using QuPath software[65],[66] v.0.2.3. Tissues were annotated to include all available lung tissue or all brain tissue excluding cerebellum, as cerebellar tissue was not available for all mice. Following annotation, automated detection was performed using automated SLIC superpixel segmentation with a DAB mean detection threshold of 0.18892.

[4] = tested on: SARS-CoV-2 (USA-WA1/2020, lineage A); format: in vivo, K18-hACE2 mice
[5] = tested on: SARS-CoV-2 B.1.617.2 (Delta); assay: K18-hACE2 mice infected with Delta VOC, lung pathology scores on IHC sections; conditions: individual mice, single dose 12 hpi, 3 DPI
Procedure: (§2) For histological examination, mouse lungs and brains were collected directly after euthanasia and placed in 10% formalin for more than 72 h, after which tissues were embedded in paraffin. Tissue sections (4 μm) were analysed after staining with H&E and scored blinded by an anatomic pathologist. For lung, scores were applied based on the percentage of each tissue type (alveolus, vessels and so on) affected using the following criteria: (0) normal; (1) less than 10% affected; (2) 10–25% affected; (3) 26–50% affected; and (4) more than 50% affected[64]. Assessment of lung pathology in K18-hACE2 mice infected with the SARS-CoV-2 B.1.617.2 (Delta) VOC after single-dose treatment was performed on IHC sections counterstained with haematoxylin. For brains, histological scoring was assessed for perivascular inflammation using the most severely affected vessel and the following criteria: (0) no perivascular inflammation; (1) incomplete cuff one cell layer thick; (2) complete cuff one cell layer thick; (3) complete cuff two to three cells thick; and (4) complete cuff four or more cells thick. Necrotic cells in the neuroparenchyma were assessed per 0.237 mm^2 field using the most severely affected area and the following criteria: (0) no necrotic cells; (1) rare individual necrotic cells; (2) fewer than 10 necrotic cells; (3) 11 to 25 necrotic cells; (4) 26 to 50 necrotic cells; and (5) greater than 50 cells.

[6] = tested on: SARS-CoV-2 B.1.617.2 (Delta); design: species or system K18-hACE2 mice; conditions: mouse, in vivo
[7] = tested on: SARS-CoV-2 B.1.1.7 (Alpha); assay: microbe, parasite or virus in culture; format: cell-based; conditions: UK
[8] = tested on: SARS-CoV-2 B.1.351 (Beta); assay: microbe, parasite or virus in culture; format: cell-based; conditions: SA
[9] = tested on: SARS-CoV-2 P.1 (Gamma); assay: microbe, parasite or virus in culture; format: cell-based; conditions: Brazil
[10] = tested on: SARS-CoV-2 VOCs; assay: SARS-CoV-2 VOC infection of Calu-3 cells, summary over all VOCs; format: cell-based; conditions: Severe acute respiratory syndrome coronavirus 2, range over VOCs
[11] = tested on: SARS-CoV-2 (USA-WA1/2020, lineage A); assay: K18-hACE2 mouse model of SARS-CoV-2, IHC of nucleocapsid with digital image analysis; format: in vivo, K18-hACE2 mice; conditions: for Num Positive per mm^2 (IHC) / Positive % (IHC): Lung, Figure 5 Panel G, individual animals
Procedure: as §1

[12] = tested on: SARS-CoV-2 (VIDO); format: cell-based; design: plaque assay titre, Figure 2c: unit not given beside the values; conditions: for reduction of viral titre (plaque assay): supernatant of infected Calu-3 cells, vs DMSO-treated infected control; for plaque assay titre, Figure 2c: replicate columns
[13] = tested on: SARS-CoV-2 (USA-WA1/2020, lineage A); assay: K18-hACE2 mouse model of SARS-CoV-2, H&E histopathology of lung and brain; conditions: 8-day regimen
Procedure: as §2

[14] = Figure S8 C, tissue plaque assay, Females, individual animals
[15] = Figure S8 C, tissue plaque assay, Males, individual animals
[16] = Males, Figure 5 Panel F, individual animals
[17] = females, Figure 5 Panel F, individual animals
[18] = individual mice, 8-day regimen, tissue at death or end-point
[19] = individual mice, tissue at death or end-point

## CS(=O)(=O)NC(CCC(N)=O)C(=O)NC(Cc1ccccc1)C(=O)NC(CCCNC(=N)N)C(=O)c1nc2ccccc2s1 (stereo not drawn) [Compound N-0385, Ms-QFR-kbt]
[1]; 10 μM compound, 24 h, relative to vehicle (DMSO 0.01%), single experiments N1-N4, read-out: % Viability of Vero E6 cells
  viability at 24 h, 10 µM: 127%
[1]; % Viability of Vero E6 cells
  viability at 24 h, 10 µM: 100%
[2]; Females
  PFU/g: 30000000 PFU/g and 0 PFU/g and 275000 PFU/g and 1000 PFU/g
  PFU/mL: 6000000 PFU/mL and 0 PFU/mL and 55000 PFU/mL and 200 PFU/mL
[2]; Males
  PFU/g: 275000 PFU/g and 32500 PFU/g and 1750 PFU/g and 0 PFU/g
  PFU/mL: 55000 PFU/mL and 6500 PFU/mL and 350 PFU/mL and 0 PFU/mL
[2]; mouse, in vivo
  reduction in lung viral titres at 3 dpi: more than 50%
[3]; individual mice (f = female, m = male), single dose 12 hpi, 3 dpi, Fig. 6f, listed as n385
  Num Positive events/mm^2 (nucleocapsid IHC, lung): 2181.1 events/mm^2 and 5.047 events/mm^2 and 10.41 events/mm^2 and 9.171 events/mm^2 and 935.88 events/mm^2 and 0.9105 events/mm^2 and 3.523 events/mm^2 and 51.75 events/mm^2 and 3.842 events/mm^2 and 20.48 events/mm^2
[3]; single dose at 12 hpi, vs saline-treated group
  reduction in IHC viral staining in lung at 3 dpi: more than 50%
[4]; [14]
  PFU/g: 0 PFU/g
  PFU/mL: 0 PFU/mL
[4]; [15]
  PFU/g: 0 PFU/g and 4852.94 PFU/g and 5882.35 PFU/g and 11764706 PFU/g
  PFU/mL: 0 PFU/mL and 970.588 PFU/mL and 1176.47 PFU/mL and 2352941 PFU/mL
[4]; Males, Figure 5 Panel F, at the Dilution Factor, individual animals
  Average Plaques: 53.25 and 0
[4]; [16]
  PFU/g: 2662500 PFU/g and 0 PFU/g
  PFU/mL: 532500 PFU/mL and 0 PFU/mL
[4]; endpoint plaque assay (Panel H), females, individual animals
  Average Plaques: 0
[4]; endpoint plaque assay (Panel H), females, individual animals, tissue resuspended at 5ul/mg
  PFU/g: 0 PFU/g
[4]; endpoint plaque assay (Panel H), males, individual animals
  Average Plaques: 0
[4]; endpoint plaque assay (Panel H), males, individual animals, tissue resuspended at 5ul/mg
  PFU/g: 0 PFU/g
[4]; females, Figure 5 Panel F, at the Dilution Factor, individual animals
  Average Plaques: 21 and 0 and 7.75
[4]; [17]
  PFU/g: 10500000 PFU/g and 0 PFU/g and 387500 PFU/g
  PFU/mL: 2100000 PFU/mL and 0 PFU/mL and 77500 PFU/mL
[4]; intranasal once daily day −1 to day 2, 14 dpi
  infectious virus in the lung at the study end-point: No infectious virus was detected
[4]; mouse, in vivo
  PFU/mL: 0 PFU/mL
  reduction of lung viral titres (plaque assay) at 3 dpi: 97%
[5]; IHC sections
  Alveolar cells score: 0 and 1 ((1) <10% affected)
  Interstitial infiltrates in lung score: 1 ((1) <10% affected) and 2 ((2) 10–25% affected)
  Perivascular infiltrate in lung score: 1 ((1) <10% affected) and 2 ((2) 10–25% affected) and 0 and 3 ((3) 26–50% affected)
  Type II pneumocyte hyperplasia score: 0 and 2 ((2) 10–25% affected) and 1 ((1) <10% affected)
[5]; sum of scores
  Total Score (lung pathology): 2 and 6 and 3 and 1 and 7
[6]
  weight gain (six days after infection): 2%
  weight loss (six days after infection): 5%
[7]; log [C] (nM) -0.49485
  infection, dose response Figure 3c (nucleocapsid): 100.507 and 68.1892 and 93.9276 and 91.6566 and 100
  infection, dose response Figure 3d (dsRNA): 68.6997 and 68.3556 and 77.9197 and 68.9 and 100
[7]; log [C] (nM) -1.19382
  infection, dose response Figure 3c (nucleocapsid): 96.9973 and 100 and 88.1248
  infection, dose response Figure 3d (dsRNA): 83.4401 and 68.4372 and 71.2209 and 84.9067 and 100
[8]; log [C] (nM) 0.20412
  infection, dose response Figure 3c (nucleocapsid): 79.6793 and 91.7767 and 88.3707 and 72.9139 and 58.6745
  infection, dose response Figure 3d (dsRNA): 63.8002 and 67.3054 and 60.7262 and 87.9301 and 97.1304
[8]; log [C] (nM) 0.90309
  infection, dose response Figure 3c (nucleocapsid): 43.2222 and 77.2087 and 78.2089 and 72.2128 and 63.0729
  infection, dose response Figure 3d (dsRNA): 54.6567 and 62.1742 and 66.7756 and 99.2713 and 89.1898
[8]; log [C] (nM) 1.60206
  infection, dose response Figure 3c (nucleocapsid): 26.0524 and 35.9809 and 32.5888 and 37.5917 and 24.568
  infection, dose response Figure 3d (dsRNA): 39.7311 and 51.7136 and 44.1381 and 59.5864 and 41.1574
[8]; log [C] (nM) -0.49485
  infection, dose response Figure 3c (nucleocapsid): 80.9236 and 100 and 89.9432 and 52.6441
  infection, dose response Figure 3d (dsRNA): 76.5319 and 75.7767 and 69.4582 and 92.7897 and 93.6397
[8]; log [C] (nM) -1.19382
  infection, dose response Figure 3c (nucleocapsid): 96.6594 and 91.8391 and 98.1873 and 70.3455
  infection, dose response Figure 3d (dsRNA): 75.3943 and 74.8717 and 100 and 96.2799
[9]; log [C] (nM) 0.20412
  infection, dose response Figure 3c (nucleocapsid): 100 and 81.7088 and 65.1564
  infection, dose response Figure 3d (dsRNA): 75.4607 and 65.7035 and 100 and 82.6067
[9]; log [C] (nM) 3
  infection, dose response Figure 3d (dsRNA): 8.633
[9]; log [C] (nM) -0.49485
  infection, dose response Figure 3c (nucleocapsid): 100 and 84.3433
  infection, dose response Figure 3d (dsRNA): 100 and 92.9624 and 97.3601
[9]; log [C] (nM) -1.19382
  infection, dose response Figure 3c (nucleocapsid): 91.5649 and 100 and 99.1769
  infection, dose response Figure 3d (dsRNA): 98.3176 and 96.7175 and 100 and 97.435
[10]; read-out: EC50 against all VOCs, dsRNA staining
  pEC50: 7.58 to 8.59
[10]; read-out: EC50 against all VOCs, nucleocapsid staining
  pEC50: 7.86 to 8.68
[11]; Females
  Num Positive per mm^2 (IHC): 5.547 per mm^2 and 9.942 per mm^2 and 13.6 per mm^2 and 13.27 per mm^2 and 7.069 per mm^2
  Positive % (IHC): 0.0549% and 0.0981% and 0.1335% and 0.1309% and 0.07%
[11]; Males
  Num Positive per mm^2 (IHC): 19.22 per mm^2 and 9.103 per mm^2 and 13.04 per mm^2 and 20.75 per mm^2 and 10.41 per mm^2
  Positive % (IHC): 0.1899% and 0.0899% and 0.1288% and 0.204% and 0.1028%
[11]; [18]
  Brain No. Positive (IHC detections): 113 and 131 and 205 and 255 and 133 and 201 and 429346 and 137295 and 271623 and 125
  Brain No. Positive per mm^2: 2.79 per mm^2 and 3.006 per mm^2 and 3.517 per mm^2 and 4.198 per mm^2 and 3.156 per mm^2 and 4.077 per mm^2 and 7967.3 per mm^2 and 2771 per mm^2 and 5985.4 per mm^2 and 3.495 per mm^2
  Brain Positive %: 0.0277% and 0.0298% and 0.035% and 0.0417% and 0.0314% and 0.0404% and 79.52% and 27.59% and 59.16% and 0.0347%
  Lung No. Positive (IHC detections): 192 and 131 and 152 and 95 and 269 and 3067 and 1648 and 28511 and 272
  Lung No. Positive per mm^2: 6.545 per mm^2 and 5.06 per mm^2 and 8.682 per mm^2 and 7.096 per mm^2 and 3.624 per mm^2 and 7.345 per mm^2 and 133.68 per mm^2 and 86.7 per mm^2 and 861.5 per mm^2 and 8.911 per mm^2
  Lung Positive %: 0.065% and 0.0502% and 0.0856% and 0.0701% and 0.0366% and 0.0726% and 1.322% and 0.8535% and 8.502% and 0.088%
[11]; intranasal once daily day −1 to day 2, vs saline-treated mice
  reduction of IHC staining (nucleocapsid) in lung at 3 dpi: 98%
[12]; 40 nM
  reduction of viral titre (plaque assay): ~2 log
  plaque assay titre, Figure 2c: 1000 (11×) and 22000 (2×) and 33000 and 132000 and 10000 (2×) and 33333
[12]; 200 nM
  reduction of viral titre (plaque assay): ~2 log
  plaque assay titre, Figure 2c: 1000 (8×) and 10000 (6×) and 20000 (2×) and 11111 and 40000 and 30000
[13]; N-0385: surviving mice, day 14
  Brain lesions (H&E): absent
[13]; individual mice, most severely affected vessel
  Perivascular infiltrates in CNS score: 0 and 1
[13]; [19]
  Alveolar cells score: 2 ((2) 10–25% affected) and 1 ((1) <10% affected) and 0
  Alveolar edema score: 0
  Alveolar fibrin score: 0
  Fibrosis score: 2 ((2) 10–25% affected) and 1 ((1) <10% affected) and 0
  Interstitial infiltrates in lung score: 2 ((2) 10–25% affected) and 1 ((1) <10% affected) and 0
  Lymphoid hyperplasia score: 1 ((1) <10% affected) and 0
  Perivascular infiltrate in lung score: 3 ((3) 26–50% affected) and 1 ((1) <10% affected) and 0
  Type II pneumocyte hyperplasia score: 2 ((2) 10–25% affected) and 1 ((1) <10% affected) and 0 and 3 ((3) 26–50% affected)
